Data published in US8834843B2, “Imaging method” (GE Healthcare Limited, priority 2007, dated 2014).
pEC50, pKi: −log10 of the molar value. Numbered stars: 1 amine (or outer) side, 2 acyl side, 3 side chain; on linkers, the order of the positions; unused ones are H or OH. Bridge positions count the residues as written; N and C are the ends. Side chains are listed from the residue outwards. Peptide text beside a SMILES is read from it. * marks the point of attachment. X3 = CC[N+]1=C(/C=C/C=C/C=C2/N(CCCCCC(=O)*)c3ccc4c(S(=O)(=O)O)cc(S(=O)(=O)O)cc4c3C2(C)C)C(C)(C)c2c1ccc1c(S(=O)(=O)O)cc(S(=O)(=O)O)cc21; X4 = CC1=[N+]([O-])[Tc]23(=[O])(=[O])[N](CCC(CCN*)CC[N]2C(C)(C)C(C)=[N+]3[O-])C1(C)C; Glutaryl = O=C(CCCC(=O)[*:2])[*:1]

What was measured:
EA-Hy926 membranes = assay: Competitive binding assay with 125I-echistatin on EA-Hy926 membranes; design: species or system human
Procedure: The inhibition constant of Compound 6 was measured using a previously-described membrane binding assay (Indrevoll et al, Bioorg & Med Chem Lett, 2006, 16, 6190-6193).
In brief, membranes from the human endothelial adenocarcinoma cell line EA-Hy926 were prepared and the Kd calculated for the purified membrane fraction. A competitive binding assay was then established to measure inhibition constants for cold Compound 6. ^125I-echistatin was used as the labelled ligand and cold echistatin as a reference standard.
A total of sixteen dilutions of cold test compound (either cold echistatin or cold Compound 6) were prepared and mixed with a combination of ^125I-echistatin and membrane prior to incubation for 1 hour at 37° C. Following several washes, the bound material was harvested on a filter using a Skatron micro harvester. The filterspots were finally excised and counted in a Packard γ-counter.
The inhibition constants for Compound 3 and Compound 8 were determined using the method described in Example 1. FIG. 3 illustrates binding of ^125I-echistatin versus cold Compound 3, Compound 8 and echistatin on EA-Hy926 membranes.

[1] = test system: Activated human hepatic stellate cells, LX-2; assay: Binding to activated human hepatic stellate cells LX-2
Procedure: Activated human hepatic stellate cells, LX-2 (provided by Prof. Scott L. Friedman, Mount Sinai School of Medicine, New York), were cultured in 12-well plates (Nunc) to confluence in Dulbeccos Modified Eagels Medium containing 10% FBS, streptomycin and glutamine. The cells were washed twice in a cold buffer containing 50 mM Tris, pH 7.4, 150 mM NaCl, 5 mM MnCl2, 1 mM CaCl2 and 0.01% BSA. The cells were further incubated in the buffer containing a trace amount of labelled compound (either 0.1 nM ^125I Compound 6 or 0.1 nM ^125I-echistatin) together with various concentrations of cold compound for 60 min at 4° C. with shaking. Following incubation, the unbound material was removed by washing the cells 3 times with cold buffer. The cells were detached from the wells by adding 0.1M NaOH and transferred to a tube to be counted in a gamma-counter (Packard). FIG. 2 illustrates the observed activity values.

[2] = test system: fibrogenic livers in BDL model; assay: Liver uptake in BDL vs sham rats at 15 days post-op, vs negative control; assay type: in vivo, rat; conditions: one hour post-injection
Procedure: On the appropriate day post surgery BDL and sham animals were removed and put under isoflurane anaesthesia, then each animal was injected with 0.3 ml intravenously (i.v.) via tail vein (˜3MBq). At the appropriate time point post-injection of the test item, each animal was re-anaesthetised with isoflurane, sacrificed by cervical dislocation weighed and the weight recorded via a barcode scanning system. Each animal was dissected and the following organs and tissues were removed and counted using BASIL counter protocol 40 or manual counting:
The BDL and sham animal models were set up as described in Example 3. At 15 days post-operatively, one of Compound 3, Compound 8 or a negative control was administered to each animal and liver uptake assessed as described in Example 3.

| SMILES | Binding to EA-Hy926 membranes (in words) (EA-Hy926 membranes) | pKi (EA-Hy926 membranes; cold compound vs 125I-echistatin, 1 hour at 37° C., read-out: Ki in the EA-Hy926 membrane assay) | Binding to activated human hepatic stellate cells (in words) [1] | pEC50 ([1]; 0.1 nM 125I labelled compound plus cold compound, 60 min at 4° C., read-out: EC50 in the LX-2 cell assay) | Liver retention/uptake in BDL compared to sham animals (in words) [2] |
| --- | --- | --- | --- | --- | --- |
| N=C(N)NCCC[C@@H]1NC(=O)[C@@H]2CSSC[C@H](NC(=O)[C@H](CC(=O)O)NC(=O)CNC1=O)C(=O)N[C@@H](Cc1ccccc1)C(=O)N[C@H](C(=O)NCCOCCOCCOCCNC(=O)COCC(N)=O)CSCC(=O)N[C@@H](CCCCNC(=O)c1cccc([123I])c1)C(=O)N2 [Compound 6] | binding specifically | ~8.00 | binding specifically | ~9.00 | – |
| CC[N+]1=C(/C=C/C=C/C=C2/N(CCCCCC(=O)NCCCC[C@@H]3NC(=O)CSC[C@@H](C(=O)NCC(=O)N[C@@H](CCCCNC(=O)CCCC(=O)NCCC4CC[N]5C(C)(C)C(C)=[N+]([O-])[Tc]56(=[O])(=[O])[N](CC4)C(C)(C)C(C)=[N+]6[O-])C(N)=O)NC(=O)[C@H](CCCNC(=N)N)NC(=O)[C@@H]4CSSC[C@H](NC3=O)C(=O)NCC(=O)N[C@@H](CC(=O)O)C(=O)N[C@@H](Cc3ccccc3)C(=O)N4)c3ccc4c(S(=O)(=O)O)cc(S(=O)(=O)O)cc4c3C2(C)C)C(C)(C)c2c1ccc1c(S(=O)(=O)O)cc(S(=O)(=O)O)cc21 (some centres unmarked) [negative control, reference compound] ({CH2CO}-K(X3)CGDFCRCGK([Glutaryl-X4])-NH2; disulfide 2-6; thioether N-8) | – | – | – | – | no significant difference |
